The subject of data set [1] is low oxygen-loaded mice. Kind of data set: Survival time of low oxygen-loaded mice. Type of data set: in vivo, Male ICR mice. The conditions noted are these: 300 mg/kg single dose 10 minutes before inhalation of 95.3% nitrogen / 4.7% oxygen; 14 animals; control 201±18. The procedure: Male ICR mice (weighing about 30 g) were put in a glass vessel having a volume of 2 liters, equipped with an inhalation opening and an exhaust opening. A gaseous mixture of 95.3% nitrogen and 4.7% oxygen was blown into the vessel at 5 ℓ/min. to cause a low oxygen state, and the time for mice to die was measured. The ester was intravenously administered 10 minutes before the inhalation of the gaseous mixture. Only physiological saline was given to the control group.
(1) mg/kg i.p.: amount of a single dose given. (2) Unit: second * 5%is a significant difference in death rate as compared to the control group (group given physiological saline).

The subject of data set [2] is Malonedealdehyde in the Brain of Rats Injected with Autoblood. The data set can be described thus: Malonedealdehyde (lipid peroxide) content in the brain of autoblood-injected rats. The data set is classed as in vivo, Male Wistar rats. The conditions noted are these: 300 mg/kg i.p. once a day; right hemispherical brain on the fourth day after the operation; control 168±15. The procedure: Male Wistar rats (weighing about 300 g) were anesthesized with pentobarbital (40 mg/kg i.e.) and fixed on a brain normal position fixing device. In order to form hematoma in the brain, 0.2 cc of autoblood previously collected from the tail vein was injected in the site of the brain at 4 mm to the right from the arrow suture, at 2 mm to the tail side from the crown suture and at 4 mm of the brain surface. The left rear paw was forced onto a stand having a height of 4.5 cm and the time from which the forced posture was maintained was measured and evaluated as neural condition. The ester was intraperitoneally administered immediately after the injection of autoblood and then once a day. Physiological saline alone was given to the control group. […]
Immediately after the observation of the neural condition on the fourth day of the operation, the head of each rat was cut off and the right hemispherical brain was isolated. The lipid peroxides in the brain were fluorometrically determined by forming about 10% of a homogenate with 1.15% potassium chloride, taking 0.1 ml of the homogenate and measuring using malonedealdehyde as a standard substance according to Yagi's method.
Futher in Table IV are shown the results of the effect on malonedealdehyde in the brain. The results were evaluated by the Student's t-test. […]

Data set [3] in a line: Acute toxicity (LD50) on intraperitoneal injection into mice. The following applies: mouse, in vivo, ip, read-out: acute toxicity (LD₅₀). An excerpt: The isopropyl ester (I) and salts have an acute toxicity (LD₅₀) of approximately 5.3 g/kg on intraperitoneal injection into mice.
Data set [4] deals with autoblood-injected rats. Kind of data set: Neural condition (duration of forced posture) of autoblood-injected rats. Type of data set: in vivo, Male Wistar rats. The conditions noted are these: 300 mg/kg i.p. once a day, 30 minutes after administration. How it is done: Male Wistar rats (weighing about 300 g) were anesthesized with pentobarbital (40 mg/kg i.e.) and fixed on a brain normal position fixing device. In order to form hematoma in the brain, 0.2 cc of autoblood previously collected from the tail vein was injected in the site of the brain at 4 mm to the right from the arrow suture, at 2 mm to the tail side from the crown suture and at 4 mm of the brain surface. The left rear paw was forced onto a stand having a height of 4.5 cm and the time from which the forced posture was maintained was measured and evaluated as neural condition. The ester was intraperitoneally administered immediately after the injection of autoblood and then once a day. Physiological saline alone was given to the control group. The measurement of neural condition was made after the operation daily for 4 consecutive days, 30 minutes after administration.
(1) mg/kg i.p.: amount of a single dose given. (2) Unit: second (3) Number of days after the operation. *5% is a significant difference in duration as compared to the control group (group given physiological saline). **1% is a significant difference in duration as compared to the control group. Number of animals: 10 - 11.

Data set [5] has as its system rats ligated at carotids (both sides). Kind of data set: Death of rats ligated at both carotids (cerebral ischemia). The following applies: 300 mg/kg i.p. per single dose, given immediately after and 1 and 2 hours after ligation; dead animals 24 hours after ligation; 24 animals; control 21 dead. The data set is classed as in vivo, male Wistar rats. The procedure:
Both carotids of male Wistar rats (weighting about 300 g) were permanently ligated to cause a cerebral ischemic state. The rats suffered neural conditions (paralysis or spasm of the limbs, etc.) and most of them died in 24 hours. The influence of the ester on death 24 hours afer ligation was examined. The ester was intraperitoneally administered immediately after the ligation, and 1 and 2 hours after the ligation. Physiological saline alone was given to the control group.
(1) mg/kg i.p.: amount of a single dose given. (2) Number of dead animals 24 hours after ligation *5% is a significant difference in death rate compared to the control group (group given physiological saline.

Marks after values point to notes of the source that are not given here.

In the case of `CC(C)OC(=O)CNC(=O)[C@H](CS)NC(=O)CC[C@H](N)C(=O)O` [Glutathione monoisopropyl ester, isopropyl γ-L-glutamyl-L-cysteinyl glycinate], in data set [1], the “Survival Time” value was found to be 262 ± 22 s. Besides, the “Content of Malonedealdehyde” value in data set [2] is given as 97±20 nmol/g wet weight. For the same molecule, in data set [3], the LD50 was around 5300 mg/kg. In data set [4] (Day 1 after the operation, control 42±10), the “Duration, Day 1” value is 11 ± 5 s. In addition, in data set [4] (Day 2 after the operation, control 53±12), the “Duration, Day 2” value is 22 ± 11 s. Further, the “Duration, Day 3” value in data set [4] (Day 3 after the operation, control 43±11) stood at 8 ± 1 s. Moreover, in data set [4] (Day 4 after the operation, control 31±10), the “Duration, Day 4” value is 7 ± 1 s. In addition, the “Number of Dead Animals” value in data set [5] is 15*.

The values above are taken from patent EP0257992A2, “Prophylactic and therapeutic agents for cerebral ischemia” (YAMANOUCHI PHARMACEUTICAL CO. LTD., priority 1986, dated 1988).
